Measurements published in patent US20250243220A1, “ATR INHIBITORS” (APREA THERAPEUTICS, INC., priority 2022, published 2025).

Tests used:
Type in all cases: cell-based
[1] = test system: SKOV-3; test: IC50 assay by Western blot (APH-treated cells), SKOV-3; conditions: SKOV-3 cells; for IC50: Homo sapiens, SK-OV-3
Method: (§1) E. Treatment of Cells for IC50 Assay by Western Blot
(§2) The compound is stored as a 1 mM stock solution prepared in accordance with the Receipt of Compound SOP. The stock solution is diluted in cell media in two separate 1:10 dilution series.
(§3) 1. Arrange twelve 15-mL centrifuge tubes in a rack in two series and label them in accordance with Dilutions Series 1 and Dilution Series 2 shown in Table 1 and Table 2, respectively.
(§4) 2. Place 2.5 mL of prewarmed cell media in each of the […]. Place 2.25 mL of prewarmed cell media in the remaining tubes.
(§5) 3. Add 7.5 μL of 1 mM compound stock solution in the 3 μM tube. Mix well.
(§6) 4. Add 2.5 μL of 1 mM compound stock solution in the 1 μM tube. Mix well.
(§7) 5. For each series (separately), remove 250 μL from the leftmost tube and transfer to the next tube to the right. Repeat for each tube until the series is complete.
(§8) 6. Set aside the 1 μM tube, the 3 μM tube, and the 300 nM tube for discard.
(§9) 7. The cells to be treated will be in 6-well plates labeled by cell line. Remove the cells from the incubator and label the wells with the dosages to be administered.
(§10) 8. Arrange the dilution tubes in the rack in a manner that reflects the 6-well plate arrangement so as to avoid confusion when administering the dosage solutions to the appropriate wells.
(§11) 9. Aspirate the three wells in the top row of the first plate (labeled NT, APH+, and APH+) and replace with 2 mL fresh media (without drug compound).
(§12) 10. Aspirate the three wells in the bottom row of the first plate and replace each well with 2 mL of solution from the appropriate tube.
(§13) 11. Repeat step 10 for the next row of wells (top row second plate). and then for the final row of wells (bottom row second plate).
(§14) 12. Place both plates into the incubator for 30 minutes.
(§15) 13. After 30 minutes have elapsed, remove the plates from the incubator.
(§16) 14. Acquire stock solution of APH (5 mM) and add 2 μL of the APH stock solution to the center of each well except the well labeled NT.
(§17) 15. Swirl the plates carefully and gently to diffuse the APH throughout each well.
(§18) 16. Place the plates back in the incubator for 4 hours, at which point the cells will be harvested for analysis.
(§19) 17. Twenty minutes before harvesting (or 3 hours and 40 minutes after administration of APH), turn on a heat block suitable to heat Eppendorf tubes. Set the temperature to 95° C.
(§20) 18. Set up a number of Eppendorf tubes equal to the number of wells treated (i.e., twelve per two-plate drug administration), and label each tube with cell line, compound administered, dosage level, and date. Leave the tubes open.
(§21) 19. Add 200 mL DI water to a beaker.
(§22) 20. After 4 hours, remove treated plates from incubator.
(§23) 21. Aspirate media from all wells.
(§24) 22. Wash each well with 2 mL 1×PBS and aspirate.
(§25) 23. Sterilize vacuum line with 70% ethanol by spraying some into the nozzle while the vacuum is engaged. Shut off vacuum.
(§26) 24. Add Laemmli buffer to each well. For HCT116 Bcl/xl, OVCAR-3, and 22RV1 cells, add 300 μL per well; for OVCAR-8 and SKOV-3 cells, add 250 μL per well.
(§27) 25. Scrape the first well thoroughly. Place the scraper into the DI water between uses.
(§28) 26. Transfer the lysed cell debris mixture to the first tube carefully. The mixture will be viscous. Use a 1000-μL pipettor. Close the tube.
(§29) 27. Repeat steps 25 and 26 for each well.
(§30) 28. When all wells have been harvested, place all the tubes into the heat block. Place a weighted, heat-resistant object on top of the tubes to keep them closed.
(§31) 29. After 5 minutes, remove the tubes from the heat block and turn it off. Vortex each tube for 10 seconds. Be cautious of tubes popping open.
(§32) 30. Allow the tubes to come to room temperature and proceed to further analysis or store frozen at −20° C.

[2] = MEC (+APH)
[3] = test system: OVCAR-8; test: IC50 assay by Western blot (APH-treated cells), OVCAR-8; conditions: OVCAR-8 cells; for IC50: Homo sapiens
Method: as §1, §2, §3, §4, §5, §6, §7, §8, §9, §10, §11, §12, §13, §14, §15, §16, §17, §18, §19, §20, §21, §22, §23, §24, §25, §26, §27, §28, §29, §30, §31, §32

[4] = test system: HCT116 Bcl/xl; test: IC50 assay by Western blot (APH-treated cells), HCT116 Bcl/xl; conditions: for IC50: Homo sapiens, HCT-116
Method: as §1, §2, §3, §4, §5, §6, §7, §8, §9, §10, §11, §12, §13, §14, §15, §16, §17, §18, §19, §20, §21, §22, §23, §24, §25, §26, §27, §28, §29, §30, §31, §32

[5] = test system: HCT Bcl/xl, OVCAR-3, OVCAR-8, SKOV-3, 22RV1 cell lines; test: Ave. IC50 across cell lines; conditions: average across cell lines
[6] = test system: 22RV1; test: IC50 assay by Western blot (APH-treated cells), 22RV1; conditions: 22RV1 cells; for IC50: Homo sapiens
Method: as §1, §2, §3, §4, §5, §6, §7, §8, §9, §10, §11, §12, §13, §14, §15, §16, §17, §18, §19, §20, §21, §22, §23, §24, §25, §26, §27, §28, §29, §30, §31, §32

[7] = test system: OVCAR-3; test: IC50 assay by Western blot (APH-treated cells), OVCAR-3; conditions: OVCAR-3 cells; for IC50: Homo sapiens
Method: as §1, §2, §3, §4, §5, §6, §7, §8, §9, §10, §11, §12, §13, §14, §15, §16, §17, §18, §19, §20, §21, §22, §23, §24, §25, §26, §27, §28, §29, §30, §31, §32

Compound | IC50 [1] [nM] | PALD (Percent Activity at Lowest Dose tested) SKOV-3 [1] | minimal effective concentration [2] [µM] | IC50 [3] [nM] | PALD (Percent Activity at Lowest Dose tested) OVCAR-8 [3] | IC50 [4] [nM] | PALD (Percent Activity at Lowest Dose tested) HCT Bcl/xl [4] | IC50 [5] [nM] | PALD (Percent Activity at Lowest Dose tested) 22RV1 [6] | IC50 [6] [nM] | IC50 [7] [nM] | PALD (Percent Activity at Lowest Dose tested) OVCAR-3 [7]
CC1(O)CCCCCCOc2c(CN)cccc2NC(=O)c2nc(cnc2N)-c2ccc(cc2)S(=O)(=O)C(C)(C)C1 (racemic) [Compound C, 5-amino-13-(aminomethyl)-22-hydroxy-22,24,24-trimethyl-25,25-dioxo-15-oxa-25λ^6-thia-4,8,31-triazatetracyclo[24.2.2.1^2,6.0^9,14]hentriaconta-1(28),2(31),3,5,9(14),10,12,26,29-nonaen-7-one] | 1.08 | (100%) | 1e-05 | 6.8 | (73%) | 2.06 | (65%) | 3.6 | (90%) | 4.32 | 3.85 | (158%)
CNCc1cccc2c1OCCCCCC[C@](C)(O)CC(C)(C)S(=O)(=O)c1ccc(cc1)-c1cnc(N)c(n1)C(=O)N2 (single isomer, unassigned) [Compound A-1] | 2.85 | (81%) | 2e-05 | 2.16 | (91%) | 2.68 | (110%) | 3.29 | (121%) | 4.69 | 4.09 | (116%)
CNCc1cccc2c1OCCCCCC[C@@](C)(O)CC(C)(C)S(=O)(=O)c1ccc(cc1)-c1cnc(N)c(n1)C(=O)N2 (single isomer, unassigned) [Compound A-2] | 2.71 | (110%) | 2e-05 | 2.95 | (82%) | 2.29 | (91%) | 2.42 | (107%) | 3.44 | 0.753 | (101%)
CNCc1cccc2c1OCCCCCC[C@](C)(O)CC1(CC1)S(=O)(=O)c1ccc(cc1)-c1cnc(N)c(n1)C(=O)N2 (single isomer, unassigned) [Compound B-1] | 1.57 | (106%) | 4e-05 | 7.06 | (132%) | 4.61 | (93%) | 5.12 | (98%) | 4.95 | 7.43 | (105%)
CNCc1cccc2c1OCCCCCC[C@@](C)(O)CC1(CC1)S(=O)(=O)c1ccc(cc1)-c1cnc(N)c(n1)C(=O)N2 (single isomer, unassigned) [Compound B-2] | 0.97 | (115%) | 2e-05 | 2.62 | (115%) | 3 | (81%) | 2.32 | (101%) | 1.89 | 3.12 | (94%)
CC1(C)C[C@](C)(O)CCCCCCOc2c(CN)cccc2NC(=O)c2nc(cnc2N)-c2ccc(cc2)S1(=O)=O (single isomer, unassigned) [Compound C-2] | 3.2 | (95%) | 1e-05 | 2.47 | (100%) | 5.41 | (71%) | 4.92 | (92%) | 2.03 | 11.5 | (95%)
C[C@@H]1COCCN1c1cc(C2([S@](C)(=N)=O)CC2)nc(-c2cc[nH]c3nccc2-3)n1 [AZD 6738, reference compound] | 107 | (105%) | 0.0003 | 86.6 | (116%) | 57.1 |  | 123 | (165%) | 275 | 91.8 | (190%)
CNCc1ccc(-c2cc(-c3nc(-c4ccc(S(=O)(=O)C(C)C)cc4)cnc3N)on2)cc1 [VE822, reference compound] | 9.5 | (55%) | 0.0003 | 84.6 | (89%) | 62.1 | (105%) | 50 | (86%) | 84.9 | 11.5 | (79%)
